Results reported in US9303012B2, “Pyridine-2-amides useful as CB2 agonists” (Hoffmann-La Roche Inc., priority 2012, dated 2016).

What was measured:
human CB2 receptors = human CB2 receptors (Homo sapiens (Human), UniProt P34972); experiment: functional cAMP assay, CHO cells expressing human CB2 receptors; type: cell-based
Method in brief: (§1)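 CHO cells expressing human CB1 or CB2 were preincubated 30 min at 30 °C in Krebs Ringer bicarbonate with 1 mM IBMX, then exposed to compound 30 min at 30 °C. cAMP quantified by TR-FRET competition (Alexa700 antibody/ruthenium-cAMP) against a 10 μM–0.13 nM standard curve; EC50 derived.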

human CB1 receptors = human CB1 receptors (Homo sapiens (Human), UniProt P21554); experiment: functional cAMP assay, CHO cells expressing human CB1 receptors; type: cell-based
Sequence of human CB1 receptors (P21554 whole entry): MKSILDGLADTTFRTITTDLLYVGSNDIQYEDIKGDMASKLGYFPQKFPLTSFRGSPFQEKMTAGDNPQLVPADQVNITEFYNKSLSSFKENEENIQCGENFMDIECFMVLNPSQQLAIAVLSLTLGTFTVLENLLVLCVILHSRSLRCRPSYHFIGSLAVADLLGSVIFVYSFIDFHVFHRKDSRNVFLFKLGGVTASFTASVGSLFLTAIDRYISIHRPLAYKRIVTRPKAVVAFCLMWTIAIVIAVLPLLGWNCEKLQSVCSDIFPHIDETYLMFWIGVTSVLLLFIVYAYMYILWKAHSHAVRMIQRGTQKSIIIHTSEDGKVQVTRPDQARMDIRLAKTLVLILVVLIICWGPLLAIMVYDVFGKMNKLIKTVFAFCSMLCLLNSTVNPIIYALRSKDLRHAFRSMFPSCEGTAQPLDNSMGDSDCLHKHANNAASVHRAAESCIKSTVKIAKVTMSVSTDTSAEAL
Method in brief: as §1

Sequence of human CB2 receptors (P34972 whole entry): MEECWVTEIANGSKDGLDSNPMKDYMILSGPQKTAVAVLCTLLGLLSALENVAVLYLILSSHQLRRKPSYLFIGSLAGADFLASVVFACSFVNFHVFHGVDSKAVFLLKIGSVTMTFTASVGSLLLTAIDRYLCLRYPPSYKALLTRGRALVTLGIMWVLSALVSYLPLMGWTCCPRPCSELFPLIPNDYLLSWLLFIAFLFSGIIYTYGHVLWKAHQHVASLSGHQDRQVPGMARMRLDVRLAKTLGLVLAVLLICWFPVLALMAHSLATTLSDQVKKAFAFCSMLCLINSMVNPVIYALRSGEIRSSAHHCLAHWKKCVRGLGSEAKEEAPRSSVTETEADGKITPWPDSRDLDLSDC

SMILES | EC50 (human CB2 receptors) [µM] | EC50 (human CB1 receptors) [µM]
O=C(c1ccc(N2CC(F)(F)C2)c(OCC2CC2)n1)N1CCC2(CC(O)CO2)C1 (centres unmarked) [Example 82, [6-Cyclopropylmethoxy-5-(3,3-difluoro-azetidin-1-yl)-pyridin-2-yl]-(3-hydroxy-1-oxa-7-aza-spiro[4.4]non-7-yl)-methanone] | 0.356 | > 10
O=C(c1ccc(N2CC(F)(F)C2)c(OCC2CC2)n1)N1CC2(CC(O)CO2)C1 (centres unmarked) [Example 83, [6-Cyclopropylmethoxy-5-(3,3-difluoro-azetidin-1-yl)-pyridin-2-yl]-(7-hydroxy-5-oxa-2-aza-spiro[3.4]oct-2-yl)-methanone] | 0.76 | > 10
CC1(C)CCCN1C(=O)c1ccc(C2CC2)c(OCC(F)(F)C(F)(F)F)n1 [Example 84, [5-Cyclopropyl-6-(2,2,3,3,3-pentafluoro-propoxy)-pyridin-2-yl]-(2,2-dimethyl-pyrrolidin-1-yl)-methanone] | 0.0189 | > 10
O=C(c1ccc(N2CC(F)(F)C2)c(OCC2CC2)n1)N1C[C@H]2CC[C@@H](C1)O2 [Example 85, [6-Cyclopropylmethoxy-5-(3,3-difluoro-azetidin-1-yl)-pyridin-2-yl]-(1S,5R)-8-oxa-3-aza-bicyclo[3.2.1]oct-3-yl-methanone] | 0.0854 | > 10
O=C(c1ccc(N2CC(F)(F)C2)c(OCC2CC2)n1)N1[C@@H]2CC[C@H]1COC2 [Example 86, [6-Cyclopropylmethoxy-5-(3,3-difluoro-azetidin-1-yl)-pyridin-2-yl]-(1R,5S)-3-oxa-8-aza-bicyclo[3.2.1]oct-8-yl-methanone] | 0.0727 | > 10
NC(=O)[C@H]1CC(F)(F)CN1C(=O)c1ccc(C2CC2)c(OCC(F)(F)C(F)(F)F)n1 [Example 87, (R)-1-[5-Cyclopropyl-6-(2,2,3,3,3-pentafluoro-propoxy)-pyridine-2-carbonyl]-4,4-difluoro-pyrrolidine-2-carboxylic acid amide] | 0.768 | > 10
NC(=O)C1CCCCN1C(=O)c1ccc(C2CC2)c(OCC2CC2)n1 (centres unmarked) [Example 88, 1-(5-Cyclopropyl-6-cyclopropylmethoxy-pyridine-2-carbonyl)-piperidine-2-carboxylic acid amide] | 0.18 | > 10
NC(=O)C1CSCCN1C(=O)c1ccc(C2CC2)c(OCC2CC2)n1 (centres unmarked) [Example 89, 4-(5-Cyclopropyl-6-cyclopropylmethoxy-pyridine-2-carbonyl)-thiomorpholine-3-carboxylic acid amide] | 0.318 | > 10
CC1(C)CC(C(N)=O)N(C(=O)c2ccc(C3CC3)c(OCC3CC3)n2)C1 (centres unmarked) [Example 90, 1-(5-Cyclopropyl-6-cyclopropylmethoxy-pyridine-2-carbonyl)-4,4-dimethyl-pyrrolidine-2-carboxylic acid amide] | 0.0148 | > 10
NC(=O)[C@H]1CCCCN1C(=O)c1ccc(C2CC2)c(OCC2CC2)n1 [Example 91, (+)-1-(5-Cyclopropyl-6-cyclopropylmethoxy-pyridine-2-carbonyl)-piperidine-2-carboxylic acid amide] | 0.893 | > 10
NC(=O)[C@@H]1CCCCN1C(=O)c1ccc(C2CC2)c(OCC2CC2)n1 [Example 92, (−)-1-(5-Cyclopropyl-6-cyclopropylmethoxy-pyridine-2-carbonyl)-piperidine-2-carboxylic acid amide] | 0.101 | > 10
NC(=O)[C@@H]1CSCCN1C(=O)c1ccc(C2CC2)c(OCC2CC2)n1 [Example 93, (−)-4-(5-Cyclopropyl-6-cyclopropylmethoxy-pyridine-2-carbonyl)-thiomorpholine-3-carboxylic acid amide] | 0.327 | > 10
CC1(C)C[C@H](C(N)=O)N(C(=O)c2ccc(C3CC3)c(OCC3CC3)n2)C1 [Example 94, (+)-1-(5-Cyclopropyl-6-cyclopropylmethoxy-pyridine-2-carbonyl)-4,4-dimethyl-pyrrolidine-2-carboxylic acid amide] | 0.0802 | > 10
CC1(C)C[C@@H](C(N)=O)N(C(=O)c2ccc(C3CC3)c(OCC3CC3)n2)C1 [Example 95, (−)-1-(5-Cyclopropyl-6-cyclopropylmethoxy-pyridine-2-carbonyl)-4,4-dimethyl-pyrrolidine-2-carboxylic acid amide] | 0.0104 | > 10
NC(=O)C1CSCN1C(=O)c1ccc(C2CC2)c(OCC2CC2)n1 (centres unmarked) [Example 96, 3-(5-Cyclopropyl-6-cyclopropylmethoxy-pyridine-2-carbonyl)-thiazolidine-4-carboxylic acid amide] | 0.103 | > 10
NC(=O)[C@@H]1CSCN1C(=O)c1ccc(C2CC2)c(OCC2CC2)n1 [Example 97, (−)-3-(5-Cyclopropyl-6-cyclopropylmethoxy-pyridine-2-carbonyl)-thiazolidine-4-carboxylic acid amide] | 0.0723 | > 10

SMILES | EC50 (human CB2 receptors) [µM] | EC50 (human CB1 receptors) [µM]
O=C(c1ccc(N2CC(F)(F)C2)c(OCC2CC2)n1)N1CC2(CCCO2)C1 [Example 99, [6-Cyclopropylmethoxy-5-(3,3-difluoro-azetidin-1-yl)-pyridin-2-yl]-(5-oxa-2-aza-spiro[3.4]oct-2-yl)-methanone] | 0.305 | > 10
O=C(c1ccc(N2CC(F)(F)C2)c(OCC2CC2)n1)N1CCC2(CCCO2)C1 (centres unmarked) [Example 100, [6-Cyclopropylmethoxy-5-(3,3-difluoro-azetidin-1-yl)-pyridin-2-yl]-(1-oxa-7-aza-spiro[4.4]non-7-yl)-methanone] | 0.0208 | > 10
O=C(c1ccc(N2CC(F)(F)C2)c(OCC2CC2)n1)N1CCCC12CCC2 [Example 101, (5-Aza-spiro[3.4]oct-5-yl)-[6-cyclopropylmethoxy-5-(3,3-difluoro-azetidin-1-yl)-pyridin-2-yl]-methanone] | 0.0049 | > 10
O=C(c1ccc(N2CC(F)(F)C2)c(OCC2CC2)n1)N1CC(F)(F)C1 [Example 102, [6-Cyclopropylmethoxy-5-(3,3-difluoro-azetidin-1-yl)-pyridin-2-yl]-(3,3-difluoro-azetidin-1-yl)-methanone] | 0.181 | > 10
O=C(c1ccc(N2CC(F)(F)C2)c(OCC2CC2)n1)N1CCC2(CC2)C1 [Example 104, (5-Aza-spiro[2.4]hept-5-yl)-[6-cyclopropylmethoxy-5-(3,3-difluoro-azetidin-1-yl)-pyridin-2-yl]-methanone] | 0.0074 | > 10
CN(CC1CC1)C(=O)c1ccc(N2CC(F)(F)C2)c(OCC2CC2)n1 [Example 105, 6-Cyclopropylmethoxy-5-(3,3-difluoro-azetidin-1-yl)-pyridine-2-carboxylic acid cyclopropylmethyl-methyl-amide] | 0.218 | > 10
O=C(c1ccc(N2CC(F)(F)C2)c(OCC2CC2)n1)N1CCN(CC2CC2)CC1 [Example 106, [6-Cyclopropylmethoxy-5-(3,3-difluoro-azetidin-1-yl)-pyridin-2-yl]-(4-cyclopropylmethyl-piperazin-1-yl)-methanone] | 0.123 | > 10
CCOC(=O)C1C2CN(C(=O)c3ccc(N4CC(F)(F)C4)c(OCC4CC4)n3)CC21 (centres unmarked) [Example 107, 3-[6-Cyclopropylmethoxy-5-(3,3-difluoro-azetidin-1-yl)-pyridine-2-carbonyl]-3-aza-bicyclo[3.1.0]hexane-6-carboxylic acid ethyl ester] | 0.757 | > 10
COC(=O)C1CCCN1C(=O)c1ccc(N2CC(F)(F)C2)c(OCC2CC2)n1 (centres unmarked) [Example 108, 1-[6-Cyclopropylmethoxy-5-(3,3-difluoro-azetidin-1-yl)-pyridine-2-carbonyl]-pyrrolidine-2-carboxylic acid methyl ester] | 0.156 | > 10
O=C(OCc1ccccc1)N1CCN(C(=O)c2ccc(N3CC(F)(F)C3)c(OCC3CC3)n2)CC1 [Example 109, 4-[6-Cyclopropylmethoxy-5-(3,3-difluoro-azetidin-1-yl)-pyridine-2-carbonyl]-piperazine-1-carboxylic acid benzyl ester] | 0.36 | > 10
O=C(O)C1C2CN(C(=O)c3ccc(N4CC(F)(F)C4)c(OCC4CC4)n3)CC21 (centres unmarked) [Example 110, 3-[6-Cyclopropylmethoxy-5-(3,3-difluoro-azetidin-1-yl)-pyridine-2-carbonyl]-3-aza-bicyclo[3.1.0]hexane-6-carboxylic acid] | 0.386 | > 10
CC(C)(C)OC(=O)N1CCC2(CCCN2C(=O)c2ccc(C3CC3)c(Cc3ccc(F)cc3)n2)CC1 [Example 111, 1-[5-Cyclopropyl-6-(4-fluoro-benzyl)-pyridine-2-carbonyl]-1,8-diaza-spiro[4.5]decane-8-carboxylic acid tert-butyl ester] | 0.008 | 2.78
NC(=O)[C@@H]1CSCN1C(=O)c1ccc(N2CC(F)(F)C2)c(OCC2CC2)n1 [Example 112, (−)-3-[6-Cyclopropylmethoxy-5-(3,3-difluoro-azetidin-1-yl)-pyridine-2-carbonyl]-thiazolidine-4-carboxylic acid amide] | 0.0198 | > 10
O=C(c1ccc(C2CC2)c(Cc2ccc(F)cc2)n1)N1CCCC12CCNCC2 [Example 113, [5-Cyclopropyl-6-(4-fluoro-benzyl)-pyridin-2-yl]-(1,8-diaza-spiro[4.5]dec-1-yl)-methanone] | 0.212 | > 10
NC(=O)C1CCCN1C(=O)c1ccc(N2CC(F)(F)C2)c(OCC2CC2)n1 (centres unmarked) [Example 114, 1-[6-Cyclopropylmethoxy-5-(3,3-difluoro-azetidin-1-yl)-pyridine-2-carbonyl]-pyrrolidine-2-carboxylic acid amide] | 0.473 | > 10
